One data set has as its target T1, mouse Slo3 K+ channels (Mus musculus, UniProt O54982).
T1 sequence (O54982 1-1121): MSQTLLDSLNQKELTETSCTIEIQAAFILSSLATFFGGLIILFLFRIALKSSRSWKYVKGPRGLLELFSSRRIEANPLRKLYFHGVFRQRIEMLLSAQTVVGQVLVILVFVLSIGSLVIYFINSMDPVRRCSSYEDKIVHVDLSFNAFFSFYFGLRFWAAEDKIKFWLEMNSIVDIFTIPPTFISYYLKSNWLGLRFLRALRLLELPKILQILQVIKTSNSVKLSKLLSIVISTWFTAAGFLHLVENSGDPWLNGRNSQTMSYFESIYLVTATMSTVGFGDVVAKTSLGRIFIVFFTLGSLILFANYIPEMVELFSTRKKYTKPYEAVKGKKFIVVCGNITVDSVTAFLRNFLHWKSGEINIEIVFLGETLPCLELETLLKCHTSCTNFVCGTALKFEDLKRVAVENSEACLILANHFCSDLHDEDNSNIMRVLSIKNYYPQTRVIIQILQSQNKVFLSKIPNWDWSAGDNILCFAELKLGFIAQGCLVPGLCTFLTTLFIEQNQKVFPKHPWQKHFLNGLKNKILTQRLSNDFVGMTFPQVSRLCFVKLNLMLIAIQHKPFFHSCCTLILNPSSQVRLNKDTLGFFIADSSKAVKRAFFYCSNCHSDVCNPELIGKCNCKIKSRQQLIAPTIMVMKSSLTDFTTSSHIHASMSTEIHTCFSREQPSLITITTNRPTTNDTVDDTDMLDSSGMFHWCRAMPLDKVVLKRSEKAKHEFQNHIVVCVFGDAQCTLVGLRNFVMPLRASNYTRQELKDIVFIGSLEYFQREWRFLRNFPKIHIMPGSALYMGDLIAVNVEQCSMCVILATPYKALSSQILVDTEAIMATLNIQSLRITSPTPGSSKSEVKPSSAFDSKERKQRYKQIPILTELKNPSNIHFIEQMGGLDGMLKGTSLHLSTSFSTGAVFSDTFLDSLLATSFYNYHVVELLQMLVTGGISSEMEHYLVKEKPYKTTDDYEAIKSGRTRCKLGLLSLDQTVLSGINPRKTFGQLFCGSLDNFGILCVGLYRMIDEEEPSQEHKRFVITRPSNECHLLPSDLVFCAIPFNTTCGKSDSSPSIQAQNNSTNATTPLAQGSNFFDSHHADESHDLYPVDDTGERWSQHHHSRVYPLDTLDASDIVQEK
It counts as cell-based.

Data set [1] is described as follows: pK and percent protonation of tertiary amines. It counts as physicochemical.
The subject of the next data set is murine sperm. The conditions noted are these: cited from earlier work.
Another data set deals with human sperm. The conditions noted are these: cited from earlier work.
The target in data set [2] is T2, mouse Slo1 K+ channels (Mus musculus, UniProt Q08460). Description: Block of Slo1 currents, blocker applied cytosolically to inside-out patches. It counts as cell-based.
T2 sequence (Q08460 66-1209 limits assumed): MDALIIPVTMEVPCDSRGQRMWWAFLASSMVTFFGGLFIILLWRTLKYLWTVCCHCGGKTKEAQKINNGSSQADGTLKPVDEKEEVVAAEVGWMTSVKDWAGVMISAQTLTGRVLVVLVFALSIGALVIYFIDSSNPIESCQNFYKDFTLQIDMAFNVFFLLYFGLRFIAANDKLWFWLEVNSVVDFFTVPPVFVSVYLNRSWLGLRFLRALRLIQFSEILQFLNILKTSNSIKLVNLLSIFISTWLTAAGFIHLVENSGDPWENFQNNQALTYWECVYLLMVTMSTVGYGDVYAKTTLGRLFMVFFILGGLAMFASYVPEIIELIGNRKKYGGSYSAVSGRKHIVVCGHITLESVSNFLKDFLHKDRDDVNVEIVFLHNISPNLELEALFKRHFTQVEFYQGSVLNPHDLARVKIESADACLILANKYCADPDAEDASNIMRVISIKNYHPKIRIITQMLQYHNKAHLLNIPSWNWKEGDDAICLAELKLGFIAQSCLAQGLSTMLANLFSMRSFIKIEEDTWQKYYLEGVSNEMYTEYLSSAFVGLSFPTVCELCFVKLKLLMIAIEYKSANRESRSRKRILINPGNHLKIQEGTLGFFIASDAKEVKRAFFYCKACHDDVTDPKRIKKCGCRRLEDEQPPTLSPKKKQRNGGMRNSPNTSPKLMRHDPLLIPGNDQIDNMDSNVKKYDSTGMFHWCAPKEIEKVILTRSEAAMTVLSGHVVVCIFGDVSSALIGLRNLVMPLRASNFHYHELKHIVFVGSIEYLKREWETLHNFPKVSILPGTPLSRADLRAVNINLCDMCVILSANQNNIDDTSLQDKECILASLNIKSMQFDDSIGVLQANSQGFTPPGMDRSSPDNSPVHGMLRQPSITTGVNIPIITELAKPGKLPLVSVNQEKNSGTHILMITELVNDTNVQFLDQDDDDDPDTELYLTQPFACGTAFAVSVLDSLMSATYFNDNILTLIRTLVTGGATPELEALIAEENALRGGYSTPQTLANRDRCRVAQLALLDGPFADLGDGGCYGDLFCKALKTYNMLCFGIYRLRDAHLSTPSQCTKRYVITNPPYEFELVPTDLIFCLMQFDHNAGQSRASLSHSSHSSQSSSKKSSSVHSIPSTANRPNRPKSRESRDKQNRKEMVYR
Data set [3] deals with T3, MC13 (Slo1(1-181):Slo3(171-1121)) (Mus musculus, UniProt O54982). In kind it is cell-based.
T3 sequence (Q08460 66-246 partner, one chain of several): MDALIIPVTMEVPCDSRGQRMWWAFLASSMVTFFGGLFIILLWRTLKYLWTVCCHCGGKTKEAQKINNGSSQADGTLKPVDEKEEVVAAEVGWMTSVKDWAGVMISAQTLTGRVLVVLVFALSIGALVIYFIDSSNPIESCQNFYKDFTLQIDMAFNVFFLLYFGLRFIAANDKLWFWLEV
Data set [4] concerns MC13 (Slo1(1-181):Slo3(171-1121)). The experiment in a line: Block of MC13. It counts as cell-based, mouse. The following applies: at 0 mV.
The target of data set [5] is T3, MC13 (Slo1(1-181):Slo3(171-1121)). Description: Block of MC13. It counts as cell-based. The following applies: for effect of extracellular 4-AP on MC13/Slo3 currents: 4-AP up to 100 mM at pH 7.0, pipette pH 8.5.
The target in data set [6] is T2, mouse Slo1 K+ channels. The experiment in a line: Block of Slo1 currents, blocker applied extracellularly to outside-out patches. In kind it is cell-based.
For a further data set, the system named is IRK1. The conditions noted are these: read-out: EC50, block of IRK1; cited from earlier work.
Another data set concerns sperm. The following applies: cited from earlier work.
For data set [7], the system named is native pH-dependent KSper K+ channel. The following applies: 500 μM quinidine; activation at pH 7.5 and +100 mV; cited from earlier work.
For data set [8] the following is noted: quinidine; cited from earlier work.
In another data set the test system is ROMK1. The following applies: cited from earlier work.
Where [9] appears, read: cytosolic 4-AP, pH 8.5, fit OB-CB (2a) 2 params.
Setting [10] is: cytosolic 4-AP, 300 μM Ca2+, pH 8.5, fit OB-CB (2') 4 params.
[11] abbreviates: intracellular quinidine, pH 8.5, fit OB-CB (2') 4 params.
Setting [12] is: extracellular quinidine, pH 8.5, fit OB-CB (2') 4 params.
Where [13] appears, read: extracellular quinidine, 300 μM Ca2+, pH 8.5, fit OB-CB (2') 4 params.

Values joined by “and” are separate entries in the source; they are usually repeats but may differ in a detail not shown here. Identical values can stand only once. “Also recorded” adds a separate entry of the source. Like-named read-outs stand apart in the source and are kept apart here.

For `Nc1ccncc1` [4-AP, 4-aminopyridine], the zo on mouse Slo3 K+ channels (setting [9]) was 0.16 ± 0.01 e; on mouse Slo1 K+ channels [2] (setting [10]), 0.12 ± 0.03 e; in [3] (setting [9]), 0.17 ± 0.02 e; at mouse Slo1 K+ channels [6] (extracellular 4-AP, 300 μM Ca2+, pH 8.5, fit OB-CB (2a) 2 params), 0.48 ± 0.04 e. Moreover, the “Slo3 more sensitive than Slo1 to cytosolic 4-AP” value on mouse Slo3 K+ channels (open channel block) is on record as 10–15 fold. In addition, the percent protonated in data set [1] (4-AP at pH 7.0, calculated from pK 9.2) is on record as 99.4%; in data set [1] (4-AP at pH 8.5, calculated from pK 9.2), 83.4%. Also, the “concentration disrupting volume regulation” value with murine sperm and with human sperm was 1 to 4 mM throughout. Also, the zδ on mouse Slo1 K+ channels [2] (cytosolic 4-AP at pH 7.0, 300 μM Ca2+, Scheme 1a (Fig. 7C)) was 0.17 ± 0.01 e and 0.18 ± 0.02 e; on mouse Slo1 K+ channels [2] (cytosolic 4-AP at pH 8.5, 300 μM Ca2+, Scheme 1a (Fig. 7D)), 0.05 ± 0.06 e; on mouse Slo1 K+ channels [2] (cytosolic 4-AP at pH 8.5, 300 μM Ca2+, state-independent Scheme 2a (Fig. 7D)), 0.11 ± 0.03 e. In addition, the zc on mouse Slo1 K+ channels [2] (setting [10]) is given as 0.33 ± 0.32 e; at mouse Slo1 K+ channels [2] (cytosolic 4-AP, 300 μM Ca2+, pH 8.5, fit OB-CB (2a) 2 params), 0.10 ± 0.02 e; in [3] (cytosolic 4-AP, pH 8.5, fit OB-CB (2') 4 params (zo fixed 0)), 0.26 + 1.05 e. The “zo (zδ)” value on mouse Slo1 K+ channels [2] (cytosolic 4-AP, 300 μM Ca2+, pH 8.5, state-independent OB-CB (2a) 2 params) is given as 0.10 ± 0.02e e; in [3] (cytosolic 4-AP, pH 8.5, open channel block OB (1a) 2 params), 0.02 ± 0.03 e. In addition, the “z(p)” value on mouse Slo1 K+ channels [2] (cytosolic 4-AP, pH 7.0 and 8.5 fit simultaneously with two-site Scheme 3) is given as 0.19 ± 0.02 e. Also, the “difference in affinity of Slo1 and Slo3 channels for extracellular 4-AP” value in [4] is given as “at least 20 fold”. Moreover, the entries for the “effect of extracellular 4-AP on MC13/Slo3 currents” value in [5] and in [5] (listed as 4-APo) were “relatively insensitive; also recorded: little effect; also recorded: essentially no blocking effect” and “without effect”, respectively.

Consider `C=C[C@H]1C[N@@]2CC[C@H]1C[C@@H]2[C@@H](O)c1ccnc2ccc(OC)cc12` [quinidine], for which the percent protonated in data set [1] (quinidine at pH 8.5, calculated from pK 8.6) was 55.7% and 55.73%. Moreover, the figures for the Kb at mouse Slo1 K+ channels [2] and at mouse Slo1 K+ channels [6] were 92.8 ± 9.8 µM and 950 ± 20 µM, respectively. For the same compound, the Kd (commonly the constant that tells how readily two partners part at equilibrium) was 207 ± 7.4 µM on mouse Slo1 K+ channels [2]; 1200 ± 210 µM at mouse Slo1 K+ channels [6] (Kbc, extracellular quinidine, 300 μM Ca2+, pH 8.5, fit OB-CB (2') 4 params); 950 ± 20 µM at mouse Slo1 K+ channels [6] (Kbo, extracellular quinidine pH 7.0, 300 μM Ca2+, pH 8.5, fit OB (1a) 2 params); 1510 ± 160 µM at mouse Slo1 K+ channels [6] (Kbo, extracellular quinidine, 300 μM Ca2+, pH 8.5, fit OB-CB (2') 4 params); 1490 ± 40 µM on mouse Slo1 K+ channels [6] (Kbo, extracellular quinidine, 300 μM Ca2+, pH 8.5, fit OB-CB (2a) 2 params). The “effective change in Kb(0), pH 8.5 versus pH 7.0” value at mouse Slo1 K+ channels [2] (cytosolic quinidine) stood at 1.56 fold. For the same compound, on mouse Slo1 K+ channels [2] (cytosolic quinidine, 10 μM Ca2+ at pH 7.0, Eqn. 1 open channel block), the zδ is given as 0.11 ± 0.03 e. Also, the zo at mouse Slo1 K+ channels [2] (intracellular quinidine, 300 μM Ca2+, pH 8.5, fit OB-CB (2a) 2 params) is 0.28 ± 0.02 e; in [3] (setting [11]), -0.38 ± 0.10 e; in data set [5] (setting [12]), -0.27 ± 0.02 e; on mouse Slo1 K+ channels [6] (setting [13]), 0.06 ± 0.08 e. Moreover, the 50% effective concentration (EC50) (as a rule, the concentration giving half of the maximal effect) in the data set on IRK1 was 700 µM. Also, in data set [3] (cytosolic quinidine, Scheme 2a), the “change in effective Kb(0), pH 8.5 versus pH 8.2” value is “approximately 2 fold”. Besides, the zc in data set [3] (setting [11]) is on record as -0.15 ± 0.38 e; in [5] (setting [12]), -0.55 ± 1.5 e; at mouse Slo1 K+ channels [6] (setting [13]) it was 0.66 ± 0.1 e. Further, the “block of MC13 at lower concentrations than block of Slo1 currents” value in data set [3] (quinidine, at potentials near 0 mV) is on record as ~ 100 fold. Also, in the data set on sperm, the “lowest concentration at which effects on sperm function have been reported” value was 20 µM. Also, the “quinidine concentration giving strong block of Slo3” value in [5] (at potentials near 0 mV, irrespective of the side of application) was “less than 10 μM”. The “block of native KSper K+ channel” value in data set [7] is reported as “strongly block”. Moreover, the “pK (one protonatable site)” value in data set [8] is given as approximately 4.2. Besides, in [8], the “pK (second protonatable site, value used)” value is 8.6. Further, in the data set on ROMK1, the “inhibition of ROMK1” value is “only moderately inhibited”. In addition, on mouse Slo1 K+ channels [6] (extracellular quinidine pH 7.0, 300 μM Ca2+, pH 8.5, fit OB (1a) 2 params), the “zo (zδ)” value is 0.047 ± 0.01 e and 0.05 ± 0.01 e.

These data come from PMC3723589 (Channels, 2010).
